Data as given in paper PMC7407272, “Induction of Lysosome Membrane Permeabilization as a Therapeutic Strategy to Target Pancreatic Cancer Stem Cells” (Cancers, 2020).

Tests used:
PDAC1 3D spheres = assay: Viability curves on PDAC1 3D spheres; format: cell-based; conditions: Homo sapiens, 30 h
Text: The PDAC patient-derived xenograft (PDX) Panc354 (referred to hereafter as PDAC3) was obtained from Dr. Manuel Hidalgo under a Material Transfer Agreement with the Spanish National Cancer Centre (CNIO), Madrid, Spain (Reference no. I409181220BSMH). PDAC1, PDAC2 and PDAC4 PDXs were established from primary patient resected tumors. Samples were provided by the BioBank Hospital Ramón y Cajal-IRYCIS (PT13/0010/0002), integrated in the Spanish National Biobanks Network and they were processed following standard operating procedures with the appropriate approval of the Ethical and Scientific Committees (Control no. No. Control: DE-BIOB-73 AC65, RG.BIOB-96 REV, and CI-BIOB-08-10-01 rev), with informed consent and according to Declaration of Helsinki principles. […]
Pancreatic CSC spheres were generated as previously described in ultra-low attachment plates (Corning) using CSC media: serum-free DMEM/F12 medium (1:1; #21331-020; Gibco, Waltham, MA, USA), supplemented with Pen/Strep (1:100; #1500-063; Gibco, Waltham, MA, USA), Fungizone (1:250; #15290-018; Gibco), L-Glutamine (1:100; #25030-024; Gibco, Waltham, MA, USA), B-27 (1:50; #17504-044; Gibco, Waltham, MA, USA) and basic fibroblast growth factor (FGF-b) (1:5000; Gibco, Waltham, MA, USA). […] To quantify spheres of > 40 μm, 1 mL of sample volume was analyzed with a CASY® Cell Counter (Roche Applied Sciences, Mannheim, Germany). […]

EGFR(E746-A750del) = target: T1, EGFR(E746-A750del) (Homo sapiens, UniProt P00533, DEL746-750); assay: KINOMEscan; format: binding; conditions: read-out: % Ctrl
T1 construct: purchased DiscoveRx KINOMEscan

ABL1(F317I)-nonP = target: T2, ABL1(F317I)-nonP (Homo sapiens, UniProt P00519, F317I); assay: KINOMEscan; format: binding; conditions: read-out: % Ctrl
T2 construct: purchased DiscoveRx KINOMEscan

TAOK1 = target: T3, TAOK1 (Homo sapiens, UniProt Q7L7X3); assay: KINOMEscan; format: binding; conditions: read-out: % Ctrl
T3 construct: purchased DiscoveRx KINOMEscan

MAP4K4 = target: T4, MAP4K4 (Homo sapiens, UniProt O95819); assay: KINOMEscan; format: binding; conditions: read-out: % Ctrl
T4 construct: purchased DiscoveRx KINOMEscan

TTK = target: T5, TTK (Homo sapiens, UniProt P33981); assay: KINOMEscan; format: binding; conditions: read-out: % Ctrl
T5 construct: purchased DiscoveRx KINOMEscan

LRRK2 = target: T6, LRRK2 (Homo sapiens, UniProt Q5S007); assay: KINOMEscan; format: binding; conditions: read-out: % Ctrl
T6 construct: purchased DiscoveRx KINOMEscan

MEK6 = target: T7, MEK6 (Homo sapiens, UniProt P52564); assay: KINOMEscan; format: binding; conditions: read-out: % Ctrl
T7 construct: purchased DiscoveRx KINOMEscan

STK35 = target: T8, STK35 (Homo sapiens, UniProt Q8TDR2); assay: KINOMEscan; format: binding; conditions: read-out: % Ctrl
T8 construct: purchased DiscoveRx KINOMEscan

SGK = target: T9, SGK (Homo sapiens, UniProt O00141); assay: KINOMEscan; format: binding; conditions: read-out: % Ctrl
T9 construct: purchased DiscoveRx KINOMEscan

MEK4 = target: T10, MEK4 (Homo sapiens, UniProt P45985); assay: KINOMEscan; format: binding; conditions: read-out: % Ctrl
T10 construct: purchased DiscoveRx KINOMEscan

PRKCQ = target: T11, PRKCQ (Homo sapiens, UniProt Q04759); assay: KINOMEscan; format: binding; conditions: read-out: % Ctrl
T11 construct: purchased DiscoveRx KINOMEscan

IKK-beta = target: T12, IKK-beta (Homo sapiens, UniProt O14920); assay: KINOMEscan; format: binding; conditions: read-out: % Ctrl
T12 construct: purchased DiscoveRx KINOMEscan

ARK5 = target: T13, ARK5 (Homo sapiens, UniProt O60285); assay: KINOMEscan; format: binding; conditions: read-out: % Ctrl
T13 construct: purchased DiscoveRx KINOMEscan

CAMK4 = target: T14, CAMK4 (Homo sapiens, UniProt Q16566); assay: KINOMEscan; format: binding; conditions: read-out: % Ctrl
T14 construct: purchased DiscoveRx KINOMEscan

STK39 = target: T15, STK39 (Homo sapiens, UniProt Q9UEW8); assay: KINOMEscan; format: binding; conditions: read-out: % Ctrl
T15 construct: purchased DiscoveRx KINOMEscan

GRK2 = target: T16, GRK2 (Homo sapiens, UniProt P25098); assay: KINOMEscan; format: binding; conditions: read-out: % Ctrl
T16 construct: purchased DiscoveRx KINOMEscan

TIE1 = target: T17, TIE1 (Homo sapiens, UniProt P35590); assay: KINOMEscan; format: binding; conditions: read-out: % Ctrl
T17 construct: purchased DiscoveRx KINOMEscan

EGFR(G719C) = target: T18, EGFR(G719C) (Homo sapiens, UniProt P00533, G719C); assay: KINOMEscan; format: binding; conditions: read-out: % Ctrl
T18 construct: purchased DiscoveRx KINOMEscan

T2 sequence (P00519 whole entry F317I): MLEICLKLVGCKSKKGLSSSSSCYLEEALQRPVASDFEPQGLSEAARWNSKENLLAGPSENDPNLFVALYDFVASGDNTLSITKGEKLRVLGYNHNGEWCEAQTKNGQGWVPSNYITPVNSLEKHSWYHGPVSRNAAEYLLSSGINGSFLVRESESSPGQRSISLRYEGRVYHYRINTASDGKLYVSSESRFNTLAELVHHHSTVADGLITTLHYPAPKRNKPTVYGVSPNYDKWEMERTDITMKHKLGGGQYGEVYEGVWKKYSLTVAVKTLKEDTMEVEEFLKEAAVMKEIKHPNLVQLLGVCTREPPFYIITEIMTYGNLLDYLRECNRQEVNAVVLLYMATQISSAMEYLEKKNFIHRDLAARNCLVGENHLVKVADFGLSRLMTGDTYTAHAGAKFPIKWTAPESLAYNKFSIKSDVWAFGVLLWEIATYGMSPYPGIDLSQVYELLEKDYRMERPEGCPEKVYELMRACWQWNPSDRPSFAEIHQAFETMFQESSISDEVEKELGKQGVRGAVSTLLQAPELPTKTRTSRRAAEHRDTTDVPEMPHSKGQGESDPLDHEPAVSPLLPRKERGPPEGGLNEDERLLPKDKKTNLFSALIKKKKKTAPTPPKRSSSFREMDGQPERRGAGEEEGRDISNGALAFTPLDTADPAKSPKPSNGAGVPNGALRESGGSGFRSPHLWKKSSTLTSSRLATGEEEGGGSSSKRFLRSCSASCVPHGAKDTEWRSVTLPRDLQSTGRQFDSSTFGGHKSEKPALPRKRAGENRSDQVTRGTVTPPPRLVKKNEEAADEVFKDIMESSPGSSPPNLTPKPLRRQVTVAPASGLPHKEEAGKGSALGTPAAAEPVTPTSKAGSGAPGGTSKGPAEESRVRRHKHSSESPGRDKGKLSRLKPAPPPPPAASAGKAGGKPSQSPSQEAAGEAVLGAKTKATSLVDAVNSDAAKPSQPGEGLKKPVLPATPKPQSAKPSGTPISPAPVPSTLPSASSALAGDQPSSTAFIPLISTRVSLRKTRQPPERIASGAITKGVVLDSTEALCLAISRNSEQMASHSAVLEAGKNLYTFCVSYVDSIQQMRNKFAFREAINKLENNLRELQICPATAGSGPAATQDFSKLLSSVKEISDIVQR
T4 sequence (O95819 whole entry): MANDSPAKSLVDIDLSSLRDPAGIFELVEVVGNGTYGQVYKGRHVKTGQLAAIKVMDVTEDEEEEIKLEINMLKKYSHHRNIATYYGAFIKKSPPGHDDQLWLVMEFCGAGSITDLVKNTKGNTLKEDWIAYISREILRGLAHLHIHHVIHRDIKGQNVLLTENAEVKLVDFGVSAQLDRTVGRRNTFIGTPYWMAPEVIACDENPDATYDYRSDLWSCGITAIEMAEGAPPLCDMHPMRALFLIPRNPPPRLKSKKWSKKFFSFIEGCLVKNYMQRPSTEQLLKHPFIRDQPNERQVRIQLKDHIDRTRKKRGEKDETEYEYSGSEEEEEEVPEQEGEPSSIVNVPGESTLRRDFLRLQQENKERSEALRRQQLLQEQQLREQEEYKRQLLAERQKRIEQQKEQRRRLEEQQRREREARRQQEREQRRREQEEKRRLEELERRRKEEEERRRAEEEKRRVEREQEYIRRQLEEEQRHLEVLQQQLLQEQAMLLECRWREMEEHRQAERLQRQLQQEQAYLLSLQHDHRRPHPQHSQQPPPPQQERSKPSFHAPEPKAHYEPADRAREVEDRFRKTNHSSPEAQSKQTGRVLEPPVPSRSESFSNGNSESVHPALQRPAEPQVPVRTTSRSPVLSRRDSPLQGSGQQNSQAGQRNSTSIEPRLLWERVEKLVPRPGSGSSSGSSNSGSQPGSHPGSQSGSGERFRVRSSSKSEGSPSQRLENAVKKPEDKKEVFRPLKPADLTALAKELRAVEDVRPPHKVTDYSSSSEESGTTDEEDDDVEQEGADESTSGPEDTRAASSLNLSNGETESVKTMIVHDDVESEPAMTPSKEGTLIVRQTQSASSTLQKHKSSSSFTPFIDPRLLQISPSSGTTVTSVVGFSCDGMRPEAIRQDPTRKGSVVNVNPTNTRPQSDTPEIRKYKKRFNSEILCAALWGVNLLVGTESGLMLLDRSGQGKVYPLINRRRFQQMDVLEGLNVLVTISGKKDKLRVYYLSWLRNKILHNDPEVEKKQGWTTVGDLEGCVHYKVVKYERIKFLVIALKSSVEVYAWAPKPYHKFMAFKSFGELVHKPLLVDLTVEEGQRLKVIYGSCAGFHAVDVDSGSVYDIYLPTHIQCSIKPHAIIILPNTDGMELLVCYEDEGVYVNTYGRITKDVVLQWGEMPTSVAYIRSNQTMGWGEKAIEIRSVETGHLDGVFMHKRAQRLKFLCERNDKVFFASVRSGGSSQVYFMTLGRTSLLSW
T13 sequence (O60285 whole entry): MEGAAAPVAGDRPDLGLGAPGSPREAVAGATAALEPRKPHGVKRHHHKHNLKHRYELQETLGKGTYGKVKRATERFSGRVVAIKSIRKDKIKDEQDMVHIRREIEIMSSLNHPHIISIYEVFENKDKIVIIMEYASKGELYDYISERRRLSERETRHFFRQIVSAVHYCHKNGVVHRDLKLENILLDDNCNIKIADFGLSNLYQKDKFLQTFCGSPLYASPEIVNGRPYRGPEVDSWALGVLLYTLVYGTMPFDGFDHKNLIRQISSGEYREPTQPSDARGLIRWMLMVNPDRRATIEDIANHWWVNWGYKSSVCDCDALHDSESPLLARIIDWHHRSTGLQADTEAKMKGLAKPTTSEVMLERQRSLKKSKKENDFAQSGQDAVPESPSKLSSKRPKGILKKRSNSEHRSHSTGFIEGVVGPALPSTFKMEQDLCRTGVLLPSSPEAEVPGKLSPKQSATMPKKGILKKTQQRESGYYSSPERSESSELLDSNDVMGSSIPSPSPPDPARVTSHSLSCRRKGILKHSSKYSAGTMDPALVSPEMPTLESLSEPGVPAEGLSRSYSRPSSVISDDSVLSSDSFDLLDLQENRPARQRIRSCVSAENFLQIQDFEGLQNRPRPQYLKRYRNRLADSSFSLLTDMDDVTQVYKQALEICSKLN
T11 sequence (Q04759 whole entry): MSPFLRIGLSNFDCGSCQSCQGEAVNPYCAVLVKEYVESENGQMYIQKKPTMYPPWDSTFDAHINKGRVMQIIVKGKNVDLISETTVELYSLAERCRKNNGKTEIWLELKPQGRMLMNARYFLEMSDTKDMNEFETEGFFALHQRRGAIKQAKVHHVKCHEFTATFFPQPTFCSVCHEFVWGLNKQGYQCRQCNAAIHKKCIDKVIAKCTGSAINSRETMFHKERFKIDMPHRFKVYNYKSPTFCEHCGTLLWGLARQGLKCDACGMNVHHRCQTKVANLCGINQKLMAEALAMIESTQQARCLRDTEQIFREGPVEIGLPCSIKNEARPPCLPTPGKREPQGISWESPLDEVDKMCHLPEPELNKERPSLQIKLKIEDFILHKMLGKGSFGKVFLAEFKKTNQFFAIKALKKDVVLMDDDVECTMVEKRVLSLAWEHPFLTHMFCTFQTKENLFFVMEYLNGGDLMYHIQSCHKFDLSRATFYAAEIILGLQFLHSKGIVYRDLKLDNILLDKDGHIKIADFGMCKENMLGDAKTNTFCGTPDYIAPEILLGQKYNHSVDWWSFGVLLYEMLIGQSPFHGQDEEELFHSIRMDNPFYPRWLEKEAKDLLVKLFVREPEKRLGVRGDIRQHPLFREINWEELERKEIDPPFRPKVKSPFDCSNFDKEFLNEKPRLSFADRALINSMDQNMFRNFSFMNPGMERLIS
T9 sequence (O00141 whole entry): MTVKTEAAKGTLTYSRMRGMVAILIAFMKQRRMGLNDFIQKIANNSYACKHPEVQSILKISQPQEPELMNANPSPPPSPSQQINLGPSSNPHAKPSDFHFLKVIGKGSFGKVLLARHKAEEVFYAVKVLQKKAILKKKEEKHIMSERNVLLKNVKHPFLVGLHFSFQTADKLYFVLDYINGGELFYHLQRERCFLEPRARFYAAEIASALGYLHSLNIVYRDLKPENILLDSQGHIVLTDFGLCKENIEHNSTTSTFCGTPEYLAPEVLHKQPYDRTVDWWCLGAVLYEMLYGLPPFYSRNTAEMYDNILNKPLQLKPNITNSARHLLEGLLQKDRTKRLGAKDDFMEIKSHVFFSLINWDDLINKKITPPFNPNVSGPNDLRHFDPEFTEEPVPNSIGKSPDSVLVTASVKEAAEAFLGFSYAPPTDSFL
T7 sequence (P52564 whole entry): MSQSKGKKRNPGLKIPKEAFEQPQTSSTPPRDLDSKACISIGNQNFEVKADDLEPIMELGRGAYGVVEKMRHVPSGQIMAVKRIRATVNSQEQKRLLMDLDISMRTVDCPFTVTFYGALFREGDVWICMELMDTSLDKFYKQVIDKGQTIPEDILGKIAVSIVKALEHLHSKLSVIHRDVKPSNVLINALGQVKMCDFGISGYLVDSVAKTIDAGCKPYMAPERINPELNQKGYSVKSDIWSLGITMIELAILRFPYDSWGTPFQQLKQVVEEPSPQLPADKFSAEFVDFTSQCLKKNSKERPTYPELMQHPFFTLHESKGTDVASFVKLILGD
T8 sequence (Q8TDR2 whole entry): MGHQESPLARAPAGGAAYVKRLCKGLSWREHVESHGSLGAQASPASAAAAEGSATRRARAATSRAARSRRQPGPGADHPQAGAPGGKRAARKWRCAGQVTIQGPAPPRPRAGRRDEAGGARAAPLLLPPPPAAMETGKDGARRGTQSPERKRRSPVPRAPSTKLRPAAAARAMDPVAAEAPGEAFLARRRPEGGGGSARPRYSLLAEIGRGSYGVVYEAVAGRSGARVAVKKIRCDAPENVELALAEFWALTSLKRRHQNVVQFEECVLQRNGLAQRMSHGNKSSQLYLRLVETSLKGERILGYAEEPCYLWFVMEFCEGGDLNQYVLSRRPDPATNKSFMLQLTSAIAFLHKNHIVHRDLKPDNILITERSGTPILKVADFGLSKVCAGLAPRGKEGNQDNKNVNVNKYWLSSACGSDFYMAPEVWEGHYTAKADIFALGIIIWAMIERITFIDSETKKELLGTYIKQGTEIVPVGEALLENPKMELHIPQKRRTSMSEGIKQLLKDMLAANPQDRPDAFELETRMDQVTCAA

Structure (SMILES): COc1nc2ccc(NCC3CCN(C)CC3)nn2c1C(=O)Nc1cccc(OC(F)(F)F)c1 [Cpd 1]
- EC50 (PDAC1 3D spheres): ~2910 nM

Structure (SMILES): CN1CCC(CNc2ccc3ncc(C(=O)Nc4cccc(OC(F)(F)F)c4)n3n2)CC1 [Cpd 2]
- remaining binding at 1 µM (EGFR(E746-A750del)): 77%
- remaining binding at 1 µM (ABL1(F317I)-nonP): 61%
- remaining binding at 1 µM (TAOK1): 82%
- remaining binding at 1 µM (MAP4K4): 89%
- remaining binding at 1 µM (TTK): 63%
- remaining binding at 1 µM (LRRK2): 68%
- remaining binding at 1 µM (MEK6): 98%
- remaining binding at 1 µM (STK35): 92%
- remaining binding at 1 µM (SGK): 85%
- remaining binding at 1 µM (MEK4): 100%
- remaining binding at 1 µM (PRKCQ): 55%
- remaining binding at 1 µM (IKK-beta): 100%
- remaining binding at 1 µM (ARK5): 88%
- remaining binding at 1 µM (CAMK4): 100%
- remaining binding at 1 µM (STK39): 99%
- remaining binding at 1 µM (GRK2): 79%
- remaining binding at 1 µM (TIE1): 90%
- remaining binding at 1 µM (EGFR(G719C)): 82%
